6 compounds from publication PMC9100884, “Semi-Synthesis of N-Aryl Amide Analogs of Piperine from Piper nigrum and Evaluation of Their Antitrypanosomal, Antimalarial, and Anti-SARS-CoV-2 Main Protease Activities” (Molecules, 2022) can be followed below.

Like-named read-outs stand apart in the source and are kept apart here.

Series [1] concerns T. brucei rhodesiense (STB900). Description: In vitro antitrypanosomal assay (resazurin). Type of series: cell-based, Trypanosoma brucei rhodesiense. Conditions: for IC50: Trypanosoma brucei, RHODESIENSE, read-out: IC50 ± S.E.M. Antitrypanosomal against T. brucei rhodesiense. Here is the method: T. brucei rhodesiense (STB900) was maintained continuously in MEM/EBSS medium (pH 7.3) supplemented with 3 g/L sodium bicarbonate, 4.5 g/L glucose, 25 mM HEPES, 0.05 mM bathocuproinedisulfonic disodium salt, 1.5 mM L-cysteine, 1 mM hypoxanthine, 0.16 mM thymidine, 1 mM sodium pyruvate, 0.2 mM 2-mercaptoethanol, 1% MEM non-essential amino acid, and 15% v/v heated ([…]) FBS in a 5% CO2 incubator [47]. To evaluate the antitrypanosomal activity, trypanosome cells were seeded at 2 × 10^4 cells/well in 175 µL culture media/well and incubated with 25 µL of varying concentrations of each test compound in a 96-well plate under the culture conditions. […] Following 72 h incubation, 20 μL of resazurin was added to each well. The reaction was further incubated at 37 °C under 5% CO2 for 3 h to allow for the irreversible reduction of resazurin (violet color) to resorufin (pink color) by viable trypanosome cells. Fluorescence signals were measured by a spectrofluorometer using a 530-nm excitation wavelength and a 585-nm emission wavelength. […] The result for each compound was normalized using the control media for the overall background subtraction (0%), and untreated T. brucei rhodesiense with 0.1% DMSO was used as the 100% control.
On the technique in general: The colour change of resazurin is a common sign of viable cells or microbes.

The subject of the next series is 3D7 P. falciparum. Description: In vitro antimalarial assay (SYBR Green I). Type of series: cell-based. Conditions: Plasmodium falciparum, read-out: IC50 ± S.E.M. Antimalarial against 3D7 P. falciparum.
A further series has as its system Vero cells. The experiment in a line: Cytotoxicity against Vero cells (sulforhodamine B assay). The format is cell-based, African green monkey. The conditions noted are these: for EC50: Chlorocebus sabaeus, 72 h, read-out: EC50 ± S.E.M. Vero; for cytotoxicity against Vero cells (in words): at the concentration of 100 μM. As to the method: Cytotoxicity test of selected analogues was performed against the African green monkey kidney fibroblast (Vero cells) obtained from Bioassay laboratory, BIOTEC, NSTDA, Thailand. The cells of less than 20 passages were maintained continuously in a MEM/EBSS medium supplemented with 10% heated fetal bovine serum (GE Healthcare, PAA Laboratories GmbH, Pasching, Aurstria), 2.2 g/L sodium bicarbonate (Emsure, ACS, Reag. Ph Eur, Darmstadt, Germany), and 1% sodium pyruvate (Sigma). Cytotoxicity was determined by sulforhodamine B assay. Briefly, 1.9 × 10^4 Vero cells were incubated with each compound at final concentrations of 0.0001–100 µM at 37 °C under 5% CO2. After incubation for 72 h, the cells were fixed with 10% trichloroacetic acid (Sigma) at 4 °C for 45 min, washed gently with tap-water and air-dried at room temperature for overnight. Then, the fixed protein was stained with 0.057% w/v of sulforhodamine B (Sigma). The excess dye was washed repeatedly with 1% v/v of acetic acid. The plates were allowed to air-dry at room temperature for overnight. Finally, the protein-bound dye in each well was dissolved with 50 µL of 10× Tris-based solution. The optical density (OD) was measured by a microplate reader at wavelength 510 nm. The EC50 value of each compound was determined from the dose-response curve. Data were shown as mean and standard error of the mean (S.E.M.) of three biological independent experiments.
In general terms: Sulforhodamine B stains cellular protein and so reports cell mass.

The subject of the next series is Vero E6 cell lines. Description: Cytotoxicity against Vero E6 cells (CellTiter 96 AQueous One). The format is cell-based. Conditions: for EC50: Chlorocebus sabaeus, read-out: EC50 ± S.E.M. Vero E6. Here is the method:
The cytotoxicity of the active compound was tested with Vero E6 cell lines. Each cell line was seeded at 1 × 10^4 cells per well into 96-well plates in growth medium and incubated overnight. The compounds were prepared at the concentrations of 2–500 µM in DMSO and added to the cells at the DMSO final concentrations of 0.1%. Cells were incubated for 48 h before analyzing the cell viability using CellTiter 96® AQueous One Solution Cell Proliferation Assay kit (Promega, Madison, WI, USA) according to the manufacturer’s protocol. The plate was read at the A450 by VICTORTM X3 microplate reader (PerkinElmer, Waltham, MA, USA). The EC50 values of the cells were calculated from nonlinear regression analysis. The results were reported as means and standard error of mean (S.E.M.) from three biological independent experiments.

Where [2] appears, read: cytotoxicity, Vero cells, sulforhodamine B, 0.0001–100 µM.
[3] abbreviates: Vero C1008, cytotoxicity, Vero E6 cells, 48 h, 2–500 µM.

For `O=C(/C=C/C=C/c1ccc2c(c1)OCO2)N1CCCCC1` [Piperine (1), Piperine], the IC50 – broadly, the concentration at which inhibition is half-maximal – in series [1] (72 h incubation, resazurin) stood at 56.7 ± 0.98 µM; in the series with 3D7 P. falciparum (3D7 strain, 48 h, SYBR Green I), 61.2 ± 2.83 µM. In addition, the concentration giving a half-maximal response (EC50) (usually the concentration needed to bring the measured effect to its halfway point) was more than 100 µM in the series on Vero cells (setting [2]) and 132 ± 2.91 µM in the series with Vero E6 cell lines (setting [3]). For the same compound, the “cytotoxicity against Vero cells (in words)” value in the series on Vero cells was “non-toxic”.

For `O=C(/C=C/C=C/c1ccc2c(c1)OCO2)Nc1ccccc1` [Compound 3, (2E,4E)-5-(benzo[d][1,3]dioxol-5-yl)-N-phenylpenta-2,4-dienamide], the IC50 in series [1] (72 h incubation, resazurin) stood at 53.5 ± 1.77 µM; with 3D7 P. falciparum (3D7 strain, 48 h, SYBR Green I) it was 25.8 ± 1.56 µM. Further, the 50% effective concentration (EC50) with Vero cells (setting [2]) is more than 100 µM; in the series with Vero E6 cell lines (setting [3]), more than 500 µM.

With `O=C(O)/C=C/C=C/c1ccc2c(c1)OCO2` [Piperic acid (2), Piperic acid], the half-maximal inhibitory concentration (IC50) in series [1] (72 h) is more than 100 µM; in the series with 3D7 P. falciparum (3D7, 48 h), 63.5 ± 2.43 µM. Further, the “activity against T. brucei rhodesiense (in words)” value in series [1] (at 100 μM) is “inactive”. Also, the concentration for a half-maximal effect (EC50) in the series on Vero cells (Vero) was more than 100 µM; in the series with Vero E6 cell lines (Vero C1008, 48 h) it was more than 500 µM. Further, in the series on Vero cells, the “cytotoxicity against Vero cells (in words)” value was “non-toxic”. In addition, the “cytotoxicity against Vero E6 cell lines (in words)” value in the series with Vero E6 cell lines (at the concentration of 500 μM) is reported as “non-toxic”.

Consider `N=C(N)c1ccc(OCCCCCOc2ccc(C(=N)N)cc2)cc1` [Pentamidine, reference compound], for which the IC50 in series [1] (72 h incubation, resazurin) was determined as 0.016 ± 0.002 µM.

`COc1ccc(OC)c(NC(=O)/C=C/C=C/c2ccc3c(c2)OCO3)c1` [Compound 5, (2E,4E)-5-(benzo[d][1,3]dioxol-5-yl)-N-(2,5-dimethoxyphenyl)penta-2,4-dienamide]: the half-inhibitory concentration (IC50) was determined as 15.5 ± 3.09 µM in series [1] (72 h incubation, resazurin) and 24.6 ± 1.91 µM in the series with 3D7 P. falciparum (3D7 strain, 48 h, SYBR Green I). The figures for the EC50 in the series on Vero cells (setting [2]) and in the series on Vero E6 cell lines (setting [3]) were more than 100 µM and more than 500 µM, respectively. Also, the “cytotoxicity against Vero cells (in words)” value in the series on Vero cells is “no cytotoxicity”.

Take `COc1ccc(NC(=O)/C=C/C=C/c2ccc3c(c2)OCO3)c(OC)c1` [Compound 4, (2E,4E)-5-(benzo[d][1,3]dioxol-5-yl)-N-(2,4-dimethoxyphenyl)penta-2,4-dienamide]: the IC50 in series [1] (72 h incubation, resazurin) was 19.9 ± 2.28 µM; in the series with 3D7 P. falciparum (3D7 strain, 48 h, SYBR Green I), 29.4 ± 3.54 µM. Besides, the EC50 is more than 100 µM in the series on Vero cells (setting [2]) and more than 500 µM in the series with Vero E6 cell lines (setting [3]).
